Values of other authors in patent publication US8697141B2, “Method and composition for preventing and healing osteonecrosis of the jaw” (Micropure, Inc., priority 2008, dated 2014).
Where two headings read alike, the source gives them in different places. Blank lines part the entries; values can stand above or below the compound they belong to.

Columns and labels:
[1] = system: human gingival fibroblasts; details: 0.05 mM
C. albicans = details: time and dose dependent
ONJ [2] = details: oral users, 208 patients
[3] = system: human gingival fibroblasts; details: chlorhexidine at 0.12%
[4] = system: human osteoblast-like cells; details: high concentrations over a prolonged time interval
osteoblasts [5] = details: chlorhexidine at 0.12%
ONJ [6] = details: 0.12% chlorhexidine; out of 24 patients
[7] = system: periodontal ligament cells; details: chlorhexidine at 0.12%
[8] = system: human gingival fibroblasts; details: low concentrations
keratinocytes = details: low concentrations
[9] = system: capillary neoangiogenesis
bone vascularity = details: rats
endothelial cells = details: dose and time dependent
fibroblasts = details: dose and time dependent
osteoblasts [10] = details: dose and time dependent
DUWL biofilms = details: after 5 days of treatment
Bacteroides gingivalis = details: 200 ppm, at several time points and different pH
bacteria = details: exposures as short as 10 seconds
[11] = in vivo
S. mutans = details: 200 ppm, within 10 seconds of application

Compound: OO [hydrogen peroxide]
induction of apoptosis ([1]; 1.0 mM): induced apoptosis at all concentrations tested

Compound: [O][Cl+][O-] [chlorine dioxide]
induction of apoptosis ([1]; 0.1 mM and 0.5 mM ClO2): not to induce apoptosis significantly
potassium leakage (C. albicans): marked increase

ONJ prevalence rate (ONJ [2]): 4%
Compound: NCCCC(O)(P(=O)(O)O)P(=O)(O)O [alendronate]

LDH release compared with controls [3]: elevated and significant LDH release
LDH release compared with controls (osteoblasts [5]): elevated and significant LDH release
LDH release compared with controls [7]: elevated and significant LDH release
Compound: [H]/N=C(\N/C(=N/[H])NCCCCCCNC(=N)NC(=N)Nc1ccc(Cl)cc1)Nc1ccc(Cl)cc1 [chlorhexidine]
cell survival [4]: adverse effect on the survival
patients with ONJ progression (ONJ [6]): 13 patients
patients with ONJ resolution (ONJ [6]): 3 patients
patients with no change in ONJ status (ONJ [6]): 8 patients

Compound: O=P(O)(O)C(O)(Cn1ccnc1)P(=O)(O)O [zoledronic acid]
apoptosis of oral mucosal cells [8]: gene-regulated induced apoptosis
apoptosis of oral mucosal cells (keratinocytes): gene-regulated induced apoptosis

Compound: NCCC(O)(P(=O)(O)O)P(=O)(O)O [pamidronate]
new formation of capillaries from blood vessels [9]: inhibit the new formation of capillaries from blood vessels
bone vascularity (bone vascularity): reduce bone vascularity

Compound: N=C(NCCCCCCNC(=N)NC(=N)Nc1ccc(Cl)cc1)NC(=N)Nc1ccc(Cl)cc1.O=C(O)[C@H](O)[C@@H](O)[C@H](O)[C@H](O)CO.O=C(O)[C@H](O)[C@@H](O)[C@H](O)[C@H](O)CO [chlorhexidine digluconate]
apoptosis and necrosis (endothelial cells): induced apoptosis and led to necrosis
apoptosis and necrosis (fibroblasts): induced apoptosis and led to necrosis
apoptosis and necrosis (osteoblasts [10]): induced apoptosis and led to necrosis

Compound: stabilized chlorine dioxide
heterotrophic plate count (HPC) value (DUWL biofilms): 0
in vitro kill (Bacteroides gingivalis): 100%
reduction in bacteria (bacteria): dramatic reduction in bacteria
VSCs in expired mouth air [11]: remarkable decrease in VSCs
LDH release compared with controls [3]: did not increase the release of LDH
LDH release compared with controls (osteoblasts [5]): did not increase the release of LDH
LDH release compared with controls [7]: did not increase the release of LDH
in vitro kill rate (S. mutans): 99%
